Test results reported in patent US20130253039A1, “COLORECTAL CANCER TREATMENTS AND DIAGNOSTIC IMPROVEMENTS” (priority 2012, published 2013).
Read-outs that look alike come from different tables or passages of the source.

Assays:
[1] = test system: HCT15; assay: Cell-kill assay (dye-based cell proliferation), HCT15; details: Homo sapiens, HCT-15; free tiazofurin, 72 h
Procedure: (§1) Human colorectal cancer cell lines HCT15, HCT116, HT29, HCC2998, and Caco2 were obtained from the National Cancer Institute, Bethesda, Md., USA, maintained in 5% CO2 at 3TC in minimum essential media containing 2.3 μM folic acid (MEM, Life Technologies, Inc., Grand Island, N.Y.) supplemented with 1% penicillin, streptomycin, amphotericin B (Invitrogen, Carlsbad, Calif.), and 10% fetal bovine serum (FBS) for all cell lines except Caco2, which required 20% FBS for optimal growth. Caco2 and HT29 cells were adapted to grow in a low-folate (LF) condition by step-wise reduction of the folate concentration in the medium and finally were stably adapted to grow in folate-free MEM supplemented with 20% and 10% FBS, respectively. The complete LF medium with 20% FBS for Caco2 cells contained 18 nM 5-methyltetrahydrofolate and the LF medium with 10% FBS for HT29 cells contained 9 nM 5-methyltetrahydrofolate. The cells were cultured in low 5-methyltetrahydrofolate conditioned medium for at least 20 generations before they were used in the experiments to promote full expression of folate receptors, and logarithmically growing cells were utilized for all studies.

[2] = test system: HCT116; assay: Cell-kill assay, HCT116; assay type: cell-based; details: Homo sapiens, HCT-116; free tiazofurin, 72 h
Procedure: as §1

[3] = test system: HT29; assay: Cell-kill assay, wild-type HT29; assay type: cell-based, human; details: for EC50: wild-type HT29, free tiazofurin, 72 h, read-out: Cytotoxicity EC50, Wild-type
Procedure: as §1

[4] = test system: HCC2998; assay: Cell-kill assay, HCC2998; assay type: cell-based; details: Homo sapiens, HCC 2998; free tiazofurin, 72 h
Procedure: as §1

[5] = test system: Caco2; assay: Cell-kill assay, wild-type Caco2; assay type: cell-based, human
Procedure: as §1

[6] = test system: hNMNAT2 transfected Caco2 cell line; assay: Cell-kill assay, hNMNAT2 transfected Caco2; details: Homo sapiens, Caco-2, 72 h, read-out: Cytotoxicity EC50, hNMNAT2
Procedure: (§2) Colorectal cancer cells were transfected with pTracer hNMNAT2 and the control plasmid pTracerEFV5/HisA using the lipofectamine reagent (Invitrogen, Carlsbad, Calif.). Zeocin resistant green fluorescence protein (GFP) expressing clones were further analyzed by Fluorescence-activated cell sorting (Becton Dickinson Immunocytometry Systems, San Jose, Calif.).
(§3) Colorectal cancer cells (1500 cells/0.1 ml) were dispensed into 96-well tissue culture plates and 24 h later treated with serial dilutions of free tiazofurin or nanoparticles containing tiazofurin (for nanoparticle treatment, cells were incubated for 2 h with gentle shaking, aspirated and fresh media was added) and further incubated for 72 h at 3TC. After incubation, 20 μl of 3-(4,5-dimethylthiazol-2-yl)-5-(3-carboxymethoxyphenyl)-2-(4-sulfophenyl)-2H-tetrazolium reagent was added to each well, mixed, plates were further incubated for 2 h and color developed was read at 490 nm using a microplate spectrophotometer (Spectra MAX250, Molecular Devices, Sunnnyvale, Calif.) and cell-kill data were analyzed by Graphpad Prism 4 software (GraphPad Software, San Diego, Calif.).

[7] = test system: hNMNAT2 transfected HT29 cell line; assay: Cell-kill assay, hNMNAT2 transfected HT29; details: Homo sapiens, HT-29, 72 h, read-out: Cytotoxicity EC50, hNMNAT2
Procedure: as §2, §3

[8] = test system: hNMNAT-2-shRNA knockdown cells (Caco2); assay: Cell-kill assay, hNMNAT-2-shRNA knockdown Caco2 cells; assay type: cell-based; details: Homo sapiens, Caco-2; hNMNAT2 overexpressing Caco2 silenced with hNMNAT2-shRNA, puromycin selected
Source text: Colorectal cancer Caco2 cells overexpressing hNMNAT2 were transfected with control shRNA plasmid and NMNAT2 small hairpin shRNA plasmid (sc-62693-SH: NMNAT2 shRNA Plasmid (h) is a pool of 3 different shRNA plasmids with a hairpin sequence: […] (SEQ ID NO: 3) and sc-62693-SHA: 5′-GUAGAAAGUGAGACUCAAUtt-3′ (SEQ ID NO: 4) and 5′-AUUGAGUCUCACUUUCUACtt-3′ (SEQ ID NO: 5); sc-62693-SHB: 5′-CCUUAGGAAUAGCAUUGUAtt-3′ (SEQ ID NO: 6) and 5′-UACAAUGCUAUUCCUAAGGtt-3′ (SEQ ID NO: 7); sc-62693-SHC: 5′-GCUCUUUCCCUCAACCUUAtt-3′ (SEQ ID NO: 8) and 5′-UAAGGUUGAGGGAAAGAGCtt-3′ (SEQ ID NO: 9). Transfection was conducted for 8 h as per manufacturer's instructions (Santa Cruz Biotechnology, Inc., Santa Cruz, Calif.). Puromycin resistant clones were selected and knockdown of hNMNAT2 was confirmed by Western blot analyses.

[9] = target: T1, IMPDH (Homo sapiens, UniProt P12268); assay: IMPDH activity in Caco2 cell lines after tiazofurin treatment; assay type: cell-based; details: 4 h
T1 construct: endogenous in cells; host or cells: Caco2 (wild-type and hNMNAT2-transfected)
T1 sequence (P12268 2-514): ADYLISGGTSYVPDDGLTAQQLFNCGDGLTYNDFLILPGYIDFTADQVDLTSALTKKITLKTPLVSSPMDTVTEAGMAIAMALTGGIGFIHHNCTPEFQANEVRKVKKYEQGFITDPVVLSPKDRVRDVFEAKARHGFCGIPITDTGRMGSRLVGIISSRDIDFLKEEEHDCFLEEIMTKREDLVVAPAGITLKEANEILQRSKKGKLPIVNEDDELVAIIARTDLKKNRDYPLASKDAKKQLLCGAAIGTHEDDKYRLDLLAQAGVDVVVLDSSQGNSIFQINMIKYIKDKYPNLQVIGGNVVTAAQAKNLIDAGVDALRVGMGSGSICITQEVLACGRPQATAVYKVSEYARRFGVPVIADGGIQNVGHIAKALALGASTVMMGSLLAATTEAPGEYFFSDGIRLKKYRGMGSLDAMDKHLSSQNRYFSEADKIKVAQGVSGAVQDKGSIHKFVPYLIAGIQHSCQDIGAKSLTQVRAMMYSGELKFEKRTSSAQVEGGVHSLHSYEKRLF
Procedure: Panel A, Cells were Processed and NAD levels were determined in the cytoplasmic extracts as described in the Methods section, below. […] Triplicate flasks were set-up with each cell line and incubated with saline or tiazofurin (100-300 μM) for 4 h at 3TC. Cells were processed as described in the Methods section below. Basal IMPDH activity in saline treated control was 1.85 […] of XMP synthesized/mg protein/min; Panel D, NMNAT enzyme activity in wild-type and hNMNAT2 transfected Caco2 cell lines. The y-axis of the bar graph indicates the NMNAT activity in unit/mg of protein; Panel E, hNMNAT2 expression in cytoplasm, nucleus, and mitochondria. Cytoplasmic, nuclear, and mitochondrial proteins were isolated as detailed in the Methods section below and expression of hNMNAT2 protein was determined by Western blot analysis in wild-type and hNMNAT2 transfected caco2 cell lines; Panel F, silencing of hNMNAT2 expression in hNMNAT2 overexpressing cell line. hNMNAT2 expression in transfected Caco2 cell lines was silenced by shRNA-NMNAT2 and there expression was determined by Western blot analysis; Panel G, the wild-type, hNMNAT2 overexpressing, and hNMNAT2 overexpressing Caco2 cell lines were subjected to cell-kill by tiazofurin. ? […]
Colorectal cancer cells were extracted and IMPDH activity was assayed as described and activity is expressed as nmol/min/mg protein [8]. […]

[10] = test system: GTP pools; assay: GTP concentration in colorectal cancer cells after tiazofurin treatment (HPLC); assay type: cell-based, human; details: 4 h
Procedure: The y-axis of the bar graph indicate the GTP concentration in nmol per million cells while the x-axis gives the tiazofurin concentration used; Panels C and F, effect of TAD concentration following tiazofurin treatment. Triplicate flasks were set-up with each cell line, treated with tiazofurin Caco2 (300 μM), and HT29 (150 μM) for 4 h and processed as detailed in Methods section below. The y-axis indicates the TAD concentration in nmol per million cells. ? Wild-type (WT), ? hNMNAT2 transfected cell line. • *Denotes statistical significance (P<0.05) NS Denotes not significant
(§4) For the determination of GTP and TAD, colorectal cancer cells were treated with concentration of tiazofurin (specified in legends to figures) or with saline for 4 h and cell extracts were prepared as detailed earlier. An aliquot of neutralized extract was injected into Phenomenex Gemini 250×4.6 mm, 5μ C18 110A column (Torrance, Calif.) maintained at 19° C., preequilibrated with buffer A (0.1 M potassium phosphate, pH 6.0) and then subjected to a stepwise gradient of buffer A with 20% acetonitrile, pH 6.0 over 30 min and analyzed on Shimadzu High Performance Liquid Chromatography (Canby, Oreg.). Under these conditions GTP eluted at 10 min separated from other nucleotides.

[11] = test system: TAD concentration; assay: TAD concentration in colorectal cancer cells after tiazofurin treatment (HPLC); assay type: cell-based, human; details: 4 h
Procedure: Panels A, B, D, and E, triplicate flasks were set-up with each cell line, treated with tiazofurin (0, 150 and 300 μM) for Caco2 and (0, 50 and 150 μM) for HT29 for 4 h and the cells were processed as detailed in Methods section below. The y-axis of the bar graph indicate the GTP concentration in nmol per million cells while the x-axis gives the tiazofurin concentration used; Panels C and F, effect of TAD concentration following tiazofurin treatment. Triplicate flasks were set-up with each cell line, treated with tiazofurin Caco2 (300 μM), and HT29 (150 μM) for 4 h and processed as detailed in Methods section below. The y-axis indicates the TAD concentration in nmol per million cells. ? […]
as §4, with “Under these conditions GTP eluted at 10 min separated from other nucleotides.” left out

[12] = test system: wild-type HT29; assay: Antitumor activity in athymic mice with subcutaneous wild-type HT29 tumors; assay type: in vivo
Procedure: (§5) In vivo studies were conducted studies to compare antitumor activity of tiazofurin in athymic mice implanted subcutaneously with wild-type and hNMNAT2-over-expressed HT29 cell lines. Groups of five female athymic mice 6-8 weeks old, weighing 16-18 grams, obtained from Harlan Sprague Dawley, Indianapolis, Ind., were injected with wild-type or hNMNAT2-over-expressed HT29 (2×10^6 cells/mice), and tumors were allowed to establish for 7 days. Mice were then treated intraperitoneally with saline or tiazofurin once-a-day for 10 days (QD10) and tumor volume and weights were monitored twice a week. […] There was a dose-dependent decrease in tumor volume following tiazofurin treatment in mice bearing wild-type HT29 (70% decrease in tumor volume at 200 mg/kg and 50% decrease in tumor volume at 50 mg/kg). […] These studies indicate that hNMNAT2-gene-targeted tiazofurin therapy for colorectal cancer is feasible. Further decreasing the dose of tiazofurin will be possible by targeting FR and/or CEA and encapsulating tiazofurin in folate-tethered nanoparticles. Further targeting would translate to additional lowering of tiazofurin induced side-effects.

[13] = test system: hNMNAT2-over-expressed HT29; assay: Antitumor activity in athymic mice with subcutaneous hNMNAT2-over-expressed HT29 tumors; assay type: in vivo
Procedure: as §5

[14] = dose of 1,100 mg/m^2, patients; cited from earlier work
[15] = test system: colorectal cancer; details: 21 patients, bolus once a day for 5 days; cited from earlier work
[16] = test system: human colorectal carcinoma; details: mouse, in vivo; cited from earlier work
[17] = 50 mg/kg intraperitoneally once-a-day for 10 days
[18] = 200 mg/kg intraperitoneally once-a-day for 10 days

Work on `NC(=O)c1csc([C@@H]2O[C@H](CO)[C@@H](O)[C@H]2O)n1` [tiazofurin, 2-R-D-ribofuranosylthiazole-4-carboxamide] yielded an EC50 [1] of 63.9 µM, an EC50 [2] of 72.6 µM and an EC50 ([3]; Homo sapiens, HT-29, 72 h) of 125 µM. The EC50 [3] was 130 ± 8 µM, the “Influence of silencing hNMNAT3 on cell-kill by tiazofurin” value ([3]; wild-type and hNMNAT2 overexpressing HT29, siRNA-hNMNAT3 24 h) was “did not influence cell-kill by tiazofurin” and the “Influence of silencing hNMNAT1 on cell-kill by tiazofurin” value ([3]; wild-type or hNMNAT2-overexpressing HT29, siRNA-hNMNAT1 day 3) was “had no effect on tiazofurin cell-kill”. The EC50 [4] was 274 µM, the EC50 ([5]; Homo sapiens, Caco-2, 72 h, wild-type Caco2, free tiazofurin, 72 h, read-out: Cytotoxicity EC50, Wild-type) was 450 µM and the “Influence of silencing hNMNAT3 on cell-kill by tiazofurin” value ([5]; wild-type and hNMNAT2 overexpressing Caco2, siRNA-hNMNAT3 24 h) was “no change in the dose of tiazofurin required to provide 50% cell-kill”. The “Influence of silencing hNMNAT1 on cell-kill by tiazofurin” value ([5]; wild-type or hNMNAT2 overexpressing Caco2, siRNA-hNMNAT1 day 3) was “did not have any influence on cell-kill by tiazofurin”, the EC50 [6] was 225 µM and the EC50 [7] was 80 ± 3 µM. The EC50 [8] was 380 µM, the EC50 ([9]; hNMNAT2 transfected Caco2, tiazofurin 100-300 μM, read-out: EC50 of decrease in IMPDH activity) was 250 µM and the “Effect on IMPDH activity” value ([9]; wild-type Caco2, sub-lethal tiazofurin 100-300 μM) was “no reduction in IMPDH activity”. For the same compound, the “Reduction in GTP levels” value ([10]; hNMNAT2-transfected Caco2, 150 μM tiazofurin) was 40%, the “Reduction in GTP levels” value ([10]; hNMNAT2-transfected Caco2, 300 μM tiazofurin) was 60% and the “Reduction in GTP levels” value ([10]; hNMNAT2-transfected HT29, 25 μM tiazofurin) was 21%. For the same compound, the “Reduction in GTP levels” value ([10]; hNMNAT2-transfected HT29, 100 μM tiazofurin) was 47%, the “Reduction in GTP pools” value ([10]; wild-type Caco-2, 150 μM tiazofurin) was 29% and the “Reduction in GTP pools” value ([10]; wild-type Caco-2, 300 μM tiazofurin) was 45%. The GTP reduction ([10]; wild-type HT29, 25 μM tiazofurin) was “did not result in GTP reduction”, the GTP reduction ([10]; wild-type HT29, 100 μM tiazofurin) was 22% and the “Fold higher concentration of TAD in hNMNAT2 overexpressing vs wild-type cell line” value ([11]; Caco2, tiazofurin 300 μM) was 2 fold. The “Fold higher levels of TAD in hNMNAT2-overexpressing vs wild-type cell line” value ([11]; HT29, tiazofurin 150 μM) was 2 fold, the “Decrease in tumor volume” value [12, 17] was 50% and the “Decrease in tumor volume” value [12, 18] was 70%. The Effect on tumor [13, 17] was “complete disappearance of tumor”, the Effect on tumor [13, 18] was “complete disappearance of tumor” and the Peak plasma concentration [14] was 240 µM. For the same compound, the Antitumor activity [15] was “no significant antitumor activity” and the Antitumor activity [16] was “significant antitumor activity”.
